Experimental data from PMC8185074, “Anchor extension: a structure-guided approach to design cyclic peptides targeting enzyme active sites” (Nature Communications, 2021).
pIC50: −log10 of the molar value. Like-named read-outs stand apart in the source and are kept apart here. Peptide text beside a SMILES is read from it.

Tests used:
Assay type in all cases: biochemical
[1] = target: T1, HDAC1 (Homo sapiens, UniProt Q13547); assay: HDAC1 inhibition, full IC50 measurement (Reaction Biology; fluorogenic p53 peptide RHKK(Ac)AMC); conditions: t1/t2 replicates
T1 construct: purchased Reaction Biology Corporation (assay run by the CRO)
T1 sequence (Q13547 whole entry): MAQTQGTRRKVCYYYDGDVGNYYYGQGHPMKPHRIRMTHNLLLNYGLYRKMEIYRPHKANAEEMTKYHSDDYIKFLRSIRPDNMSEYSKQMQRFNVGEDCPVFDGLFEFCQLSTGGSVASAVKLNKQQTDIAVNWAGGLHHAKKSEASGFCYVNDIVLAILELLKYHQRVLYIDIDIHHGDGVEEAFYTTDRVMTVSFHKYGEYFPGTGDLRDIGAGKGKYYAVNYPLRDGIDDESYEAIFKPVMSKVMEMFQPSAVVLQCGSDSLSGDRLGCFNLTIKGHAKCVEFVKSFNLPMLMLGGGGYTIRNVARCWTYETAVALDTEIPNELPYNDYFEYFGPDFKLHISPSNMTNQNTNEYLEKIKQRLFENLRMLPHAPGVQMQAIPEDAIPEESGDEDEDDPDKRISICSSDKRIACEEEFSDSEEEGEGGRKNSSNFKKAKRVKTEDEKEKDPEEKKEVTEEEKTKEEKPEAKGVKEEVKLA
In short: (§1)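 Test peptides were dispensed acoustically with enzyme in 50 mM Tris-HCl pH 8.0, 137 mM NaCl, 2.7 mM KCl, 1 mM MgCl2, 1 mg/ml BSA and 1% DMSO. After adding 50 μM RHKK(Ac)AMC, reactions ran 1 h at 30 °C, then developer was added.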

[2] = target: T2, HDAC2 (Homo sapiens, UniProt Q92769); assay: Initial HDAC2 IC50 estimate (BPS Biosciences HDAC fluorogenic assay kit)
T2 construct: purchased Reaction Biology Corporation (assay run by the CRO)
T2 sequence (Q92769 whole entry): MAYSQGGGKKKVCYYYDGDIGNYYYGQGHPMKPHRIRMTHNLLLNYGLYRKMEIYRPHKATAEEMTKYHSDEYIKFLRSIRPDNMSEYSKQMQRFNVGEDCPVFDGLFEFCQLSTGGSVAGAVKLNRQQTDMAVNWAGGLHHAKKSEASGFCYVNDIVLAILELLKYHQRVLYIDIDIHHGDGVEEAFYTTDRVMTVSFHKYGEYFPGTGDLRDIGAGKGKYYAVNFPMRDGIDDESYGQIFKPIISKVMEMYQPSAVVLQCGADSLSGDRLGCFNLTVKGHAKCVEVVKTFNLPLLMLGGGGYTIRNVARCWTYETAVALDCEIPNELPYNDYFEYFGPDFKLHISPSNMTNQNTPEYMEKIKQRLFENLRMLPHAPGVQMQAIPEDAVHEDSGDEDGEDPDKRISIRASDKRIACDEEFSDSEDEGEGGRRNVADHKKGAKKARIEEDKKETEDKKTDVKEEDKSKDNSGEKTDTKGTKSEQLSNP
In short: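 Inhibition measured by kit-based fluorogenic HDAC activity assays, with each point in duplicate or triplicate. Values come from a full 1 µM–100 pM series (1:10 steps) or are range estimates from just 20 nM and 200 nM.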

[3] = target: T2, HDAC2; assay: HDAC2 inhibition, full IC50 measurement (Reaction Biology; fluorogenic p53 peptide RHKK(Ac)AMC)
In short: as §1

[4] = Supplementary Dataset 2, read-out: HDAC2 activity (initial activity)

With N=C(N)NCCC[C@H]1NC(=O)[C@@H]2CCCN2C(=O)[C@H](CO)NC(=O)[C@@H](Cc2c[nH]cn2)NC(=O)[C@H](CCCCCS)NC(=O)[C@H](CCCCN)NC(=O)[C@H](Cc2ccc(O)cc2)NC(=O)[C@H]2CCCN2C(=O)[C@@H](CCC(N)=O)NC1=O [des3.1.0, SHA-dHis-Ser-Pro-dArg-dGln-dPro-Tyr-Lys] (HELM PEPTIDE1{K.[O=C([C@H](CCCCCS)N[*:1])[*:2]].[dH].S.P.[dR].[dQ].[dP].Y}$PEPTIDE1,PEPTIDE1,1:R1-9:R2$$$V2.0) the “HDAC1 activity raw data (signal)” value ([1]; peptide conc. 1.00E-05 M, listed as des3.1.0_t1) was 22305, the “HDAC1 activity raw data (signal)” value ([1]; peptide conc. 1.00E-05 M, listed as des3.1.0_t2) was 40732 and the “HDAC1 activity raw data (signal)” value ([1]; peptide conc. 1.11E-06 M, listed as des3.1.0_t1) was 248828. For the same compound, the “HDAC1 activity raw data (signal)” value ([1]; peptide conc. 1.11E-06 M, listed as des3.1.0_t2) was 188355, the “HDAC1 activity raw data (signal)” value ([1]; peptide conc. 1.23E-07 M, listed as des3.1.0_t1) was 589648 and the “HDAC1 activity raw data (signal)” value ([1]; peptide conc. 1.23E-07 M, listed as des3.1.0_t2) was 563314. For the same compound, the “HDAC1 activity raw data (signal)” value ([1]; peptide conc. 1.37E-08 M, listed as des3.1.0_t1) was 723592, the “HDAC1 activity raw data (signal)” value ([1]; peptide conc. 1.37E-08 M, listed as des3.1.0_t2) was 777320 and the “HDAC1 activity raw data (signal)” value ([1]; peptide conc. 1.52E-09 M, listed as des3.1.0_t1) was 783325. The “HDAC1 activity raw data (signal)” value ([1]; peptide conc. 1.52E-09 M, listed as des3.1.0_t2) was 856547, the “HDAC1 activity raw data (signal)” value ([1]; peptide conc. 3.33E-06 M, listed as des3.1.0_t1) was 76346 and the “HDAC1 activity raw data (signal)” value ([1]; peptide conc. 3.33E-06 M, listed as des3.1.0_t2) was 86885. For the same compound, the “HDAC1 activity raw data (signal)” value ([1]; peptide conc. 3.70E-07 M, listed as des3.1.0_t1) was 352482, the “HDAC1 activity raw data (signal)” value ([1]; peptide conc. 3.70E-07 M, listed as des3.1.0_t2) was 387684 and the “HDAC1 activity raw data (signal)” value ([1]; peptide conc. 4.12E-08 M, listed as des3.1.0_t1) was 725312. For the same compound, the “HDAC1 activity raw data (signal)” value ([1]; peptide conc. 4.12E-08 M, listed as des3.1.0_t2) was 693516, the “HDAC1 activity raw data (signal)” value ([1]; peptide conc. 4.57E-09 M, listed as des3.1.0_t1) was 787632 and the “HDAC1 activity raw data (signal)” value ([1]; peptide conc. 4.57E-09 M, listed as des3.1.0_t2) was 874002. For the same compound, the “HDAC1 activity raw data (signal)” value ([1]; peptide conc. 5.08E-10 M, listed as des3.1.0_t1) was 778120, the “HDAC1 activity raw data (signal)” value ([1]; peptide conc. 5.08E-10 M, listed as des3.1.0_t2) was 831348 and the pIC50 [2, 4] was 5.85. The “HDAC2 activity raw data (signal)” value ([3]; Conc. 1.00E-05 M, t1) was 59408, the “HDAC2 activity raw data (signal)” value ([3]; Conc. 1.00E-05 M, t2) was 72667 and the “HDAC2 activity raw data (signal)” value ([3]; Conc. 1.11E-06 M, t1) was 433904. For the same compound, the “HDAC2 activity raw data (signal)” value ([3]; Conc. 1.11E-06 M, t2) was 343376, the “HDAC2 activity raw data (signal)” value ([3]; Conc. 1.23E-07 M, t1) was 657996 and the “HDAC2 activity raw data (signal)” value ([3]; Conc. 1.23E-07 M, t2) was 873444. For the same compound, the “HDAC2 activity raw data (signal)” value ([3]; Conc. 1.37E-08 M, t1) was 729280, the “HDAC2 activity raw data (signal)” value ([3]; Conc. 1.37E-08 M, t2) was 826208 and the “HDAC2 activity raw data (signal)” value ([3]; Conc. 1.52E-09 M, t1) was 589537. The “HDAC2 activity raw data (signal)” value ([3]; Conc. 1.52E-09 M, t2) was 821627, the “HDAC2 activity raw data (signal)” value ([3]; Conc. 3.33E-06 M, t1) was 217345 and the “HDAC2 activity raw data (signal)” value ([3]; Conc. 3.33E-06 M, t2) was 176595. The “HDAC2 activity raw data (signal)” value ([3]; Conc. 3.70E-07 M, t1) was 565181, the “HDAC2 activity raw data (signal)” value ([3]; Conc. 3.70E-07 M, t2) was 599514 and the “HDAC2 activity raw data (signal)” value ([3]; Conc. 4.12E-08 M, t1) was 715436. For the same compound, the “HDAC2 activity raw data (signal)” value ([3]; Conc. 4.12E-08 M, t2) was 918076, the “HDAC2 activity raw data (signal)” value ([3]; Conc. 4.57E-09 M, t1) was 697486 and the “HDAC2 activity raw data (signal)” value ([3]; Conc. 4.57E-09 M, t2) was 737052. For the same compound, the “HDAC2 activity raw data (signal)” value ([3]; Conc. 5.08E-10 M, t1) was 616136 and the “HDAC2 activity raw data (signal)” value ([3]; Conc. 5.08E-10 M, t2) was 674996.

For NCCCC[C@H]1NC(=O)[C@H](CCC(N)=O)NC(=O)[C@H](CCC(=O)O)NC(=O)[C@@H]2CCCN2C(=O)[C@H](CC(N)=O)NC(=O)[C@H](CCCCCS)NC(=O)CNC(=O)[C@H](Cc2c[nH]c3ccccc23)NC1=O [des1.1.1, SHA-Asn-Pro-Glu-Gln-dLys-Trp-Gly] (HELM PEPTIDE1{E.Q.[dK].W.G.[O=C([C@H](CCCCCS)N[*:1])[*:2]].N.P}$PEPTIDE1,PEPTIDE1,1:R1-8:R2$$$V2.0), the “HDAC1 activity raw data (signal)” value ([1]; peptide conc. 1.00E-05 M, listed as des1.1.1_t1) was 15449, the “HDAC1 activity raw data (signal)” value ([1]; peptide conc. 1.00E-05 M, listed as des1.1.1_t2) was 6031 and the “HDAC1 activity raw data (signal)” value ([1]; peptide conc. 1.11E-06 M, listed as des1.1.1_t1) was 152129. For the same compound, the “HDAC1 activity raw data (signal)” value ([1]; peptide conc. 1.11E-06 M, listed as des1.1.1_t2) was 83277, the “HDAC1 activity raw data (signal)” value ([1]; peptide conc. 1.23E-07 M, listed as des1.1.1_t1) was 509662 and the “HDAC1 activity raw data (signal)” value ([1]; peptide conc. 1.23E-07 M, listed as des1.1.1_t2) was 396625. The “HDAC1 activity raw data (signal)” value ([1]; peptide conc. 1.37E-08 M, listed as des1.1.1_t1) was 648866, the “HDAC1 activity raw data (signal)” value ([1]; peptide conc. 1.37E-08 M, listed as des1.1.1_t2) was 876365 and the “HDAC1 activity raw data (signal)” value ([1]; peptide conc. 1.52E-09 M, listed as des1.1.1_t1) was 760286. The “HDAC1 activity raw data (signal)” value ([1]; peptide conc. 1.52E-09 M, listed as des1.1.1_t2) was 1050479, the “HDAC1 activity raw data (signal)” value ([1]; peptide conc. 3.33E-06 M, listed as des1.1.1_t1) was 53777 and the “HDAC1 activity raw data (signal)” value ([1]; peptide conc. 3.33E-06 M, listed as des1.1.1_t2) was 31360. The “HDAC1 activity raw data (signal)” value ([1]; peptide conc. 3.70E-07 M, listed as des1.1.1_t1) was 243491, the “HDAC1 activity raw data (signal)” value ([1]; peptide conc. 3.70E-07 M, listed as des1.1.1_t2) was 191722 and the “HDAC1 activity raw data (signal)” value ([1]; peptide conc. 4.12E-08 M, listed as des1.1.1_t1) was 677146. The “HDAC1 activity raw data (signal)” value ([1]; peptide conc. 4.12E-08 M, listed as des1.1.1_t2) was 657201, the “HDAC1 activity raw data (signal)” value ([1]; peptide conc. 4.57E-09 M, listed as des1.1.1_t1) was 723834 and the “HDAC1 activity raw data (signal)” value ([1]; peptide conc. 4.57E-09 M, listed as des1.1.1_t2) was 981941. The “HDAC1 activity raw data (signal)” value ([1]; peptide conc. 5.08E-10 M, listed as des1.1.1_t1) was 712167, the “HDAC1 activity raw data (signal)” value ([1]; peptide conc. 5.08E-10 M, listed as des1.1.1_t2) was 1083035 and the pIC50 ([2]; Supp. Table 4, rough estimates, for promising hits full measurements, read-out: HDAC2 activity (initial values for HDAC2 IC50)) was 6.72. The pIC50 [2, 4] was 6.57, the “2-Selectivity: fold potency for HDAC2 over HDAC6” value [3] was 0.17 fold and the “HDAC2 activity raw data (signal)” value ([3]; Conc. 1.00E-05 M, t1) was 51389. For the same compound, the “HDAC2 activity raw data (signal)” value ([3]; Conc. 1.11E-06 M, t1) was 176321, the “HDAC2 activity raw data (signal)” value ([3]; Conc. 1.23E-07 M, t1) was 517115 and the “HDAC2 activity raw data (signal)” value ([3]; Conc. 1.23E-07 M, t2) was 516299. The “HDAC2 activity raw data (signal)” value ([3]; Conc. 1.37E-08 M, t1) was 670648, the “HDAC2 activity raw data (signal)” value ([3]; Conc. 1.37E-08 M, t2) was 890041 and the “HDAC2 activity raw data (signal)” value ([3]; Conc. 1.52E-09 M, t1) was 768698. For the same compound, the “HDAC2 activity raw data (signal)” value ([3]; Conc. 1.52E-09 M, t2) was 986775, the “HDAC2 activity raw data (signal)” value ([3]; Conc. 3.33E-06 M, t1) was 91275 and the “HDAC2 activity raw data (signal)” value ([3]; Conc. 3.70E-07 M, t1) was 346891. For the same compound, the “HDAC2 activity raw data (signal)” value ([3]; Conc. 4.12E-08 M, t1) was 680634, the “HDAC2 activity raw data (signal)” value ([3]; Conc. 4.12E-08 M, t2) was 655155 and the “HDAC2 activity raw data (signal)” value ([3]; Conc. 4.57E-09 M, t1) was 833526. The “HDAC2 activity raw data (signal)” value ([3]; Conc. 4.57E-09 M, t2) was 959526, the “HDAC2 activity raw data (signal)” value ([3]; Conc. 5.08E-10 M, t1) was 761364 and the “HDAC2 activity raw data (signal)” value ([3]; Conc. 5.08E-10 M, t2) was 1054303.
